Measurements taken from ChEMBL document CHEMBL5154783, “Design, synthesis, and evaluation of novel 3-thiophene derivatives as potent fungistatic and fungicidal reagents based on a conformational restriction strategy” (Eur J Med Chem, 2022).
In brackets after ≈: the same amount, converted by molar mass. Activity calls are given as the source filed them. The rule behind the calls is not given here.

Assays:
Candida albicans [1] = assay: Antifungal activity against FLC-resistant Candida albicans 100 assessed as fungal growth inhibition by CLSI based serial microbroth dilution method; format: functional
Candida albicans [2] = assay: Antifungal activity against FLC and ITC-resistant Candida albicans 17 assessed as fungal growth inhibition by CLSI based serial microbroth dilution method; format: functional
Aspergillus fumigatus = assay: Antifungal activity against Aspergillus fumigatus CGMCC 3.7795 assessed as fungal growth inhibition by CLSI based serial microbroth dilution method; format: functional
Candida albicans [3] = assay: Antifungal activity against Candida albicans CPCC400616 assessed as fungal growth inhibition by CLSI based serial microbroth dilution method; format: functional
Candida albicans [4] = assay: Antifungal activity against FLC-resistant Candida albicans CaR assessed as fungal growth inhibition by CLSI based serial microbroth dilution method; format: functional
Cell membrane [5] = assay: Disruption of membrane integrity in Candida albicans ATCC SC5314 assessed as cell membrane damage at 16 ug/ml incubated for 48 hrs by transmission electron microscopy; format: subcellular; conditions: dose 16.0 µg/ml
Candida albicans [6] = assay: Antifungal activity against FLC-resistant Candida albicans 632 assessed as fungal growth inhibition by CLSI based serial microbroth dilution method; format: functional
[7] = Cytotoxicity against human HepG2 cells assessed as reduction in cell viability incubated for 96 hrs by MTT assay; format: toxicity, cell-based
RAW264.7 = assay: Cytotoxicity against mouse RAW264.7 cells assessed as reduction in cell viability incubated for 96 hrs by MTT assay; format: functional, cell-based; conditions: RAW264.7, 96 h
Candida albicans [8] = assay: Antifungal activity against FLC-resistant Candida albicans 904 assessed as fungal growth inhibition by CLSI based serial microbroth dilution method; format: functional
MCF7 = assay: Cytotoxicity against human MCF7 cells assessed as reduction in cell viability incubated for 96 hrs by MTT assay; format: functional, cell-based; conditions: MCF7, 96 h
Cell membrane [9] = assay: Disruption of membrane integrity in Candida albicans ATCC SC5314 assessed as endogenous substances leakage at 16 ug/ml incubated for 48 hrs by transmission electron microscopy; format: subcellular; conditions: dose 16.0 µg/ml
Candida albicans [10] = assay: Antibiofilm activity against Candida albicans […] assessed as inhibition of […] metabolism activity in the biofilm measured after 48 hrs by XTT reduction assay; format: functional
[11] = Stability of the compound in human plasma assessed as parent compound remaining after […] by LC-MS/MS analysis; format: ADME, cell-free; conditions: read-out: Stability
Candida parapsilosis = assay: Antifungal activity against Candida parapsilosis GIM 2.190 assessed as fungal growth inhibition by CLSI based serial microbroth dilution method; format: functional; conditions: Lodderomyces parapsilosis
Cryptococcus neoformans = assay: Antifungal activity against Cryptococcus neoformans CGMCC 2.3161 assessed as fungal growth inhibition by CLSI based serial microbroth dilution method; format: functional
Candida albicans [12] = assay: Antibiofilm activity against Candida albicans […] assessed as inhibition of […] metabolism within the biofilm measured after 6 hrs by XTT reduction assay; format: functional
Candida albicans [13] = assay: Antifungal activity against FLC-resistant Candida albicans 901 assessed as fungal growth inhibition by CLSI based serial microbroth dilution method; format: functional
Candida tropicalis = assay: Antifungal activity against Candida tropicalis CGMCC 2.3739 assessed as fungal growth inhibition by CLSI based serial microbroth dilution method; format: functional
Candida albicans [14] = assay: Antifungal activity against FLC-resistant Candida albicans 311 assessed as fungal growth inhibition by CLSI based serial microbroth dilution method; format: functional
Candida albicans [15] = assay: Antifungal activity against FLC-resistant Candida albicans 103 assessed as fungal growth inhibition by CLSI based serial microbroth dilution method; format: functional
[16] = Stability of the compound in human plasma assessed as parent compound remaining after 120 hrs by LC-MS/MS analysis; format: ADME, cell-free; conditions: read-out: Stability
Pichia kudriavzevii = assay: Antifungal activity against Candida krusei GIM 2.1 assessed as fungal growth inhibition by CLSI based serial microbroth dilution method; format: functional
Candida albicans [17] = assay: Antibiofilm activity against Candida albicans […] assessed as inhibition of […] metabolism activity in the biofilm measured after 24 hrs by XTT reduction assay; format: functional
Nakaseomyces glabratus = assay: Antifungal activity against Candida glabrata clinical isolate assessed as fungal growth inhibition by CLSI based serial microbroth dilution method; format: functional
Candida albicans [18] = assay: Fungicidal activity against Candida albicans CPCC400616 measured after 48 hrs; format: functional
Candida albicans [19] = assay: Antibiofilm activity against Candida albicans […] assessed as inhibition of […] metabolism within the biofilm measured after 18 hrs by XTT reduction assay; format: functional
[20] = Cytotoxicity against human THLE-2 cells assessed as reduction in cell viability incubated for 96 hrs by MTT assay; format: toxicity, cell-based
Candida albicans [21] = assay: Antibiofilm activity against Candida albicans […] assessed as inhibition of […] metabolism within the biofilm measured after 3 hrs by XTT reduction assay; format: functional
A549 = assay: Cytotoxicity against human A549 cells assessed as reduction in cell viability incubated for 96 hrs by MTT assay; format: functional, cell-based; conditions: A549, 96 h
[22] = Stability of the compound in human plasma assessed as half life measured after […] by LC-MS/MS analysis; format: ADME, cell-free
Cell membrane [23] = assay: Disruption of membrane integrity in Candida albicans ATCC SC5314 assessed as cell wall damage at 16 ug/ml incubated for 48 hrs by transmission electron microscopy; format: subcellular; conditions: dose 16.0 µg/ml
Cell membrane [24] = assay: Disruption of membrane integrity in Candida albicans ATCC SC5314 assessed as rupture of fungal cells at 16 ug/ml incubated for 48 hrs by transmission electron microscopy; format: subcellular; conditions: dose 16.0 µg/ml
Candida albicans [25] = assay: Antifungal activity against Candida albicans ATCC SC5314 assessed as fungal growth inhibition by CLSI based serial microbroth dilution method; format: functional

In the case of `Fc1cccc(F)c1CC1(Cn2ccnc2)COC(c2ccc(-c3ccsc3)cc2)=N1` (centres undefined), the MIC (Candida albicans [1]) is reported as 4 µg/mL (≈ 9.18 µM), the MIC (Candida albicans [2]) is reported as 8 µg/mL (≈ 18.4 µM) and the MIC (Aspergillus fumigatus) is reported as 8 µg/mL (≈ 18.4 µM). The MIC (Candida albicans [3]) was 0.015 µg/mL (≈ 0.0344 µM), the MIC (Candida albicans [4]) was 1 µg/mL (≈ 2.3 µM) and the Activity (Cell membrane [5]) was “Active”. It also gave an MIC (Candida albicans [6]) of 4 µg/mL (≈ 9.18 µM), an IC50 at 96 h [7] of 34.2 µM and an IC50 (RAW264.7) of 7.58 µM. The MIC (Candida albicans [8]) was 2 µg/mL (≈ 4.59 µM), the IC50 (MCF7) was greater than 50 µM and the Activity (Cell membrane [9]) was “Active”. For the same compound, the MIC50 (Candida albicans [10]) was greater than 64 µg/mL, the remaining [11] was 88.5% and the MIC (Candida parapsilosis) was 0.125 µg/mL (≈ 0.287 µM). For the same compound, the MIC (Cryptococcus neoformans) was 0.125 µg/mL (≈ 0.287 µM), the MIC50 (Candida albicans [12]) was 0.5 µg/mL (≈ 1.15 µM) and the MIC (Candida albicans [13]) was 0.5 µg/mL (≈ 1.15 µM). It also gave an MIC (Candida tropicalis) of 0.015 µg/mL (≈ 0.0344 µM), an MIC (Candida albicans [14]) of 8 µg/mL (≈ 18.4 µM) and an MIC (Candida albicans [15]) of 2 µg/mL (≈ 4.59 µM). It also gave a remaining at 120 h [16] of 90.1%, an MIC (Pichia kudriavzevii) of 0.25 µg/mL (≈ 0.574 µM) and an MIC50 (Candida albicans [17]) of 32 µg/mL (≈ 73.5 µM). It also gave an MIC (Nakaseomyces glabratus) of 0.06 µg/mL (≈ 0.138 µM), an MFC (Candida albicans [18]) of 1 µg/mL (≈ 2.3 µM) and an MIC50 (Candida albicans [19]) of 4 µg/mL (≈ 9.18 µM). It also gave an IC50 at 96 h [20] of 22.6 µM, an MIC50 (Candida albicans [21]) of 0.25 µg/mL (≈ 0.574 µM) and an IC50 (A549) greater than 50 µM. For the same compound, the half-life [22] was greater than 4.8 h, the Activity (Cell membrane [23]) was “Active” and the Activity (Cell membrane [24]) was “Active”. For the same compound, the MIC (Candida albicans [25]) was 0.06 µg/mL (≈ 0.138 µM).
